According to PubChem BioAssay AID2842 (Southern Research Institute, 2010):
In brackets after ≈: the same amount, converted by molar mass.

What follows are compounds tested on M. tuberculosis H37Rv growth inhibition (assay: Mycobacterium tuberculosis H37Rv growth inhibition, putative kinase inhibitor library, confirmatory dose response (AID 2842);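 further: bacteria incubated one week before Alamar blue readout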).

SMILES	IC90 [µg/mL]
Cc1cccc(C(=O)Nc2nnc(C3=COCCO3)o2)c1	3.36 (≈ 11.7 µM)
Cc1nnsc1C(=O)Nc1ccc([N+](=O)[O-])cc1C(F)(F)F	28.1 (≈ 84.5 µM)
O=C(Cc1ccccc1)Nc1nnc(-c2ccc(Cl)cc2)o1	14.1 (≈ 44.9 µM)
COc1ccccc1C(=O)Nc1nnc(-c2cc(C)ccc2C)o1	1.92 (≈ 5.94 µM)
Cc1ccc(-c2nnc(NC(=O)Cc3ccccc3)o2)c(C)c1	14.8 (≈ 48.1 µM)
C=CCOC(=O)COc1ccc2cc(-c3ccc(Cl)cc3)c(=O)oc2c1	2.53 (≈ 6.82 µM)
Cc1ccc(/C(O)=C2\C(=O)C(=O)N(c3ccccn3)C2c2cccc(Br)c2)cc1 (stereo not drawn)	21.4 (≈ 47.7 µM)
O=C(Nc1nc2c(s1)COc1ccccc1-2)c1cccc(NS(=O)(=O)c2ccc(F)cc2)c1	13.4 (≈ 27.8 µM)
Cc1nc2c(ccc3nc(NC(=O)c4ccc(C(C)(C)C)cc4)sc32)s1	3.24 (≈ 8.49 µM)
CCC(=O)Nc1nnc(-c2cc(Cl)ccc2Cl)o1	30.1 (≈ 105 µM)
O=C(OCc1nc2ccccc2s1)c1ccc(F)cc1	15.4 (≈ 53.5 µM)
COc1ccc(C)c2sc(NNC(=O)c3ccccc3)nc12	4.03 (≈ 12.9 µM)
Cc1ccc(Nc2nc(N3CCN(c4ccc(F)cc4)CC3)nc3nccnc23)cc1C	22.8 (≈ 53 µM)
CC(=O)N1CCc2c(sc(NC(=O)c3ccc(N(C)C)cc3)c2C(N)=O)C1	8.5 (≈ 22 µM)
Cc1ccccc1C(=O)Nc1nnc(-c2ccccn2)o1	15.2 (≈ 54.2 µM)
COc1cccc(C(=O)NNc2nc3c(C)cccc3s2)c1	11.6 (≈ 37.1 µM)
O=C(Nc1nnc(-c2ccc3c(c2)CCCC3)o1)c1ccco1	0.87 (≈ 2.81 µM)
O=C(Nc1nnc(-c2cc(Cl)ccc2Cl)o1)c1c(F)cccc1F	3.48 (≈ 9.4 µM)
O=C(CCSc1ccccc1)Nc1nc(-c2ccccn2)cs1	21.8 (≈ 63.9 µM)
COc1ccc(OCc2nc(C#N)c(NCc3ccc(C)cc3)o2)cc1	12.1 (≈ 34.7 µM)
CCOC(=O)N1CCc2c(sc(NC(C)=O)c2C(=O)OC)C1	14 (≈ 43 µM)

SMILES	IC90 [µg/mL]
Cc1sc2nc(SCC#N)[nH]c(=O)c2c1C	17.3 (≈ 69 µM)
COc1ccc(Cl)cc1NC(=O)NC1CC(=O)N(c2ccc(C)c(C)c2)C1 (stereo not drawn)	28.5 (≈ 73.5 µM)
CSc1cccc2sc(Nc3cccc(Cl)c3)nc12	5.38 (≈ 17.5 µM)
O=C(CC(SCc1ccco1)c1cccc([N+](=O)[O-])c1)c1ccco1 (stereo not drawn)	< 0.2
O=C(Nc1nnc(C2=COCCO2)o1)c1ccc(F)cc1	2.21 (≈ 7.59 µM)
COc1ccc2nc(Nc3nc4c(OC)cccc4s3)sc2c1	3.38 (≈ 9.84 µM)
CCOC(=O)N1CCc2c(sc(NC(=O)c3nc4ccccc4s3)c2C(N)=O)C1	3.48 (≈ 8.08 µM)
Cc1c(Cc2ccc(Cl)cc2)c(NCCCN(C)C)n2c(nc3ccccc32)c1C#N	2.21 (≈ 5.12 µM)
CC1CCCCN1S(=O)(=O)c1ccc(C(=O)Nc2nnc(-c3ccc(Br)cc3)o2)cc1 (stereo not drawn)	17.3 (≈ 34.2 µM)
COc1ccccc1-c1nnc(NC(=O)c2ccc3c(c2)CCCC3)o1	8.04 (≈ 23 µM)
Cc1ccc(C2C(C#N)=C(SCC(=O)Nc3cccc(Cl)c3)NC3=C2C(=O)CCC3)o1 (stereo not drawn)	12.1 (≈ 26.6 µM)
O=C(NCCSc1c[nH]c2ccccc12)c1cc2ccccc2oc1=O	1.58 (≈ 4.34 µM)
O=C(CCCN1C(=O)/C(=C/c2ccco2)SC1=S)Nc1ccccc1	2.96 (≈ 7.95 µM)
Cc1ccc(CC(=O)Nc2nnc(-c3ccco3)o2)c(C)c1	17.9 (≈ 60 µM)
CCN(CC)S(=O)(=O)c1ccc(C(=O)Nc2sccc2C(=O)NC(=O)OC)cc1	< 0.2
c1ccc(CN2CCN(c3nc(Nc4ccccc4)c4nccnc4n3)CC2)cc1	5.37 (≈ 13.5 µM)
COc1ccccc1Cn1cc2c(-c3ccc(C)cc3)nnc-2c2cc(C)ccc21	3.48 (≈ 8.84 µM)
O=C(Nc1nnc(-c2ccco2)o1)c1ccc2c(c1)OCCO2	11.6 (≈ 37.1 µM)
O=C(CSc1nc(-c2cccc(F)c2)[nH]c1-c1ccccc1)Nc1ccc2c(c1)OCCO2	7.87 (≈ 17.1 µM)
Cc1ccc(-n2nnc3c(SCC(=O)N4CCOCC4)ncnc32)cc1	12.3 (≈ 33.3 µM)
COc1cc(OC)cc(C(=O)Nc2nnc(-c3cccc(SC)c3)o2)c1	12.4 (≈ 33.5 µM)

SMILES	IC90 [µg/mL]
CCOC(=O)c1ccc(NC(=O)CSc2ccc(F)cc2)cc1	5.47 (≈ 16.4 µM)
Cc1cc(C)c2sc(NNC(=O)c3nc4ccccc4s3)nc2c1	15.5 (≈ 43.7 µM)
COc1cc(Br)cc(/C=N/Nc2nc(=O)[nH]nc2C)c1O	< 0.2
Cc1ccccc1C(=O)N=Nc1c(O)[nH]c2ccc(Br)cc12	30.8 (≈ 85.9 µM)
O=c1cnnc(N/N=C/c2c(O)ccc3ccccc23)[nH]1	< 0.2
COc1cccc2sc(Nc3nc(-c4ccc(Cl)s4)cs3)nc12	7.28 (≈ 19.2 µM)
O=C(Nc1nnc(-c2ccc3c(c2)CCCC3)o1)c1ccc(Cl)s1	3.63 (≈ 10.1 µM)
CCc1ccc(-c2nnc3c4cc5c(cc4n(Cc4ccc(C)cc4)cc2-3)OCCO5)cc1	15.3 (≈ 35 µM)
CC(C)(C)/C(O)=C(/C#N)c1nc2ccccc2[nH]1	16.6 (≈ 68.6 µM)
O=C(Nc1nnc(-c2ccc3c(c2)OCCO3)o1)c1nc2ccccc2s1	25.8 (≈ 67.9 µM)
CC(C)C(=O)Nc1nnc(-c2cc(Cl)ccc2Cl)o1	26.9 (≈ 89.5 µM)
O=C(Nc1nnc(-c2ccco2)o1)c1cccs1	3.12 (≈ 11.9 µM)
O=[N+]([O-])c1cccc(-c2ccc(/C=N/O)o2)c1	11.9 (≈ 51.1 µM)
CCOc1cccc2sc(N(CCCn3ccnc3)C(=O)Cc3ccc(F)cc3)nc12	4.84 (≈ 11 µM)
CCOC(=O)C(C)Sc1ncnc2c1cnn2-c1ccc(F)cc1 (stereo not drawn)	4.73 (≈ 13.7 µM)
O=C(OC1CCCCC1)c1cc2ccccc2oc1=O	49 (≈ 180 µM)
O=C1C(Cl)=C(Nc2ccccc2O)C(=O)N1Cc1ccccc1	5.45 (≈ 16.6 µM)
O=C(Nc1nc2c(s1)CCc1ccccc1-2)c1cccc(Cl)c1	12.4 (≈ 36.5 µM)
CCc1ccc(-c2nnc3c4cc5c(cc4n(Cc4ccc(OC)cc4)cc2-3)OCCO5)cc1	5.37 (≈ 11.9 µM)
O=C(Nc1nnc(-c2cc(Cl)ccc2Cl)o1)c1cccc(Cl)c1	31.7 (≈ 86.1 µM)
O=C(Nc1nnc(-c2cc(Cl)ccc2Cl)o1)c1ccc(S(=O)(=O)N2CCCCC2)cc1	11.7 (≈ 24.3 µM)

SMILES	IC90 [µg/mL]
COc1cc(C2C3=C(CC(C)(C)CC3=O)Nc3ncnn32)ccc1OCc1ccc(Cl)c(Cl)c1 (stereo not drawn)	6.77 (≈ 13.6 µM)
Cc1ccc(-c2nnc(NC(=O)c3ccc(Cl)s3)o2)c(C)c1	2.01 (≈ 6.02 µM)
CCOc1ccc2nc(SC3CC(=O)N(c4ccc(N5CCCCC5)cc4)C3=O)sc2c1 (stereo not drawn)	24.8 (≈ 53 µM)
N=c1sc(/C=C2\C=Nc3ccccc32)c(O)n1-c1nccs1	< 0.2
COc1ccc(-c2nnc(NC(=O)c3cccc(C)c3)o2)cc1	87.7 (≈ 283 µM)
COc1cccc(C(=O)N(CCCn2ccnc2)c2nc3c(C)cccc3s2)c1OC	4.2 (≈ 9.62 µM)
O=C(Nc1nnc(-c2ccc3c(c2)CCCC3)o1)c1c(F)cccc1F	4.5 (≈ 12.7 µM)
COc1ccc(C(=O)Nc2nnc(C3=COCCO3)o2)cc1	3.3 (≈ 10.9 µM)
COC(=O)c1c(NC(=O)c2ccccc2I)sc2c1CC(C)(C)NC2(C)C	13.2 (≈ 26.6 µM)
O=C(Nc1nnc(-c2ccc3c(c2)CCCC3)o1)c1ccccc1Br	< 0.2
Cc1ccc(C)c(-c2nnc(NC(=O)c3ccc(OC(C)C)cc3)o2)c1	33.4 (≈ 95 µM)
O=C(Nc1ccc(F)cc1)Nc1nc(C(=O)N2CCN(c3ccc(F)cc3)CC2)cs1	7.09 (≈ 16 µM)
COC(=O)c1c(NC(=O)c2ccccc2Oc2ccccc2)sc2c1CC(C)(C)NC2(C)C	37.1 (≈ 79.8 µM)
CC(=O)c1ccc(C(=O)Nc2nnc(-c3ccc(Cl)cc3)o2)cc1	1.8 (≈ 5.27 µM)
Fc1ccc(N2CCN(c3nc(Nc4ccccc4)c4nccnc4n3)CC2)cc1	1.69 (≈ 4.21 µM)
COc1ccccc1C(=O)Nc1nnc(-c2ccccc2Cl)o1	3.23 (≈ 9.8 µM)
Cc1cc(Cl)cc2sc(N(CCCn3ccnc3)C(=O)c3cccs3)nc12	1.05 (≈ 2.52 µM)
Cc1ccc(C)c(-c2nnc(NC(=O)c3ccccc3)o2)c1	24.5 (≈ 83.7 µM)
Cc1ccc(C)c(-c2nnc(NC(=O)c3ccc(Cl)cc3)o2)c1	22.7 (≈ 69.2 µM)
CC1CN(c2ncnc3c2c(-c2ccccc2)cn3-c2ccccc2)CC(C)O1 (stereo not drawn)	29.1 (≈ 75.8 µM)
